Patent US20220273662A1, “USE OF SILDENAFIL AND ROCK INHIBITORS FOR TREATING STROKE OR SEQUELAE FOLLOWING STROKE” (SOONCHUNHYANG UNIVERSITY INDUSTRY ACADEMY COOPERATION …, priority 2019, published 2022)
Where a name gives a salt, the structure may show the parent alone.

Legend:
Format in all cases: in vivo, Sprague-Dawley male rats
[1] = system: MCAo30 acute stroke (cerebral infarction) model; experiment: Measurement of infarction volume (TTC staining) after middle cerebral artery occlusion; conditions: relative to MCAo30 (100% stroke range basis); i.p. sildenafil citrate 20 mg/kg and/or GSK429286A 10 mg/kg, 30 min before or after reperfusion; combination value for both before/after groups
Method: 8-week-old Sprague-Dawley male rats weighing 260 to 280 g were used as experimental animals, and the experimental animals were obtained from the Experimental Animal Center, at Soonchunhyang University (Cheonan). All experimental animals were arbitrarily provided with commercially available feed and water under specific temperature, humidity and lighting conditions (light-dark cycle 12:12, 22±2° C., 55±5%). All animal protocols were approved by the Administrative Panel on Laboratory Animal Care of Soonchunhyang University (permit No. SCH16-0024). In performing experiments related to the present invention, all possible efforts were made to prevent the suffering of the experimental animals and to minimize the number of experimental animals used during the experiments. […] Finally, images were produced from TTC-stained coronal section brain slices using a model DP72 digital camera and DP2-BSW microscope digital camera software (Olympus, Japan), the area of ischemic brain damage in each brain slice was measured using image analysis software (ImageJ, NIH, USA). […] The volume of total cerebral infarction was the sum of the core and the ischemic penumbra, the damaged volume was calculated as an average percentage of the hemispherical volume, and the volume of edema was adjusted with reference to the results of previous studies. […]

[2] = system: MCAo30 acute stroke (cerebral infarction) model; experiment: Open field test (locomotor activity); conditions: normal control = 100% (MCAo30 57.4%), combination given after reperfusion
Method: 8-week-old Sprague-Dawley male rats weighing 260 to 280 g were used as experimental animals, and the experimental animals were obtained from the Experimental Animal Center, at Soonchunhyang University (Cheonan). All experimental animals were arbitrarily provided with commercially available feed and water under specific temperature, humidity and lighting conditions (light-dark cycle 12:12, 22±2° C., 55±5%). […] In performing experiments related to the present invention, all possible efforts were made to prevent the suffering of the experimental animals and to minimize the number of experimental animals used during the experiments. […] More specifically, the following experimental drugs were each intraperitoneally administered 30 minutes before reperfusion after middle cerebral artery occlusion and 30 minutes after reperfusion after middle cerebral artery occlusion. i) sildenafil citrate (20 mg/kg/saline, Hanmi Parm. […] An open field black box (60×60×40 cm; length, width, height) was placed in an isolated room without clues, and the experimental animals were placed in the central area of the open field box under diffused light. The distance traveled by the experimental animals was recorded and analyzed for 30 minutes using Ethovision® software, which is a PC-based video motion analysis system. […]

[3] = system: MCAo30 acute stroke (cerebral infarction) model; experiment: Light-dark box test (anxiety level); conditions: normal control = 100% (MCAo30 62.08%), combination given after reperfusion
Method: 8-week-old Sprague-Dawley male rats weighing 260 to 280 g were used as experimental animals, and the experimental animals were obtained from the Experimental Animal Center, at Soonchunhyang University (Cheonan). All experimental animals were arbitrarily provided with commercially available feed and water under specific temperature, humidity and lighting conditions (light-dark cycle 12:12, 22±2° C., 55±5%). All animal protocols were approved by the Administrative Panel on Laboratory Animal Care of Soonchunhyang University (permit No. SCH16-0024). […] More specifically, the following experimental drugs were each intraperitoneally administered 30 minutes before reperfusion after middle cerebral artery occlusion and 30 minutes after reperfusion after middle cerebral artery occlusion. i) sildenafil citrate (20 mg/kg/saline, Hanmi Parm. Co., Republic of Korea) ii) GSK429286A (10 mg/kg/DMSO, Sigma, USA) iii) sildenafil citrate (20 mg/kg/saline) and GSK429286A (10 mg/kg/DMSO) A light-dark box (45×27×27 cm; length, width, height) was divided into two compartments, and more specifically, three-fifths was a bright compartment and two-fifths was a dark compartment. Each compartment was connected by a 9×9 cm entrance located on the floor. […] Here, sildenafil and the ROCK inhibitor were co-administered after reperfusion after middle cerebral artery occlusion.

[4] = system: MCAo30 acute stroke (cerebral infarction) model; experiment: Barnes maze test (cognitive function, escape time); conditions: compared to normal control, MCAo30 about 3-fold longer than normal control
Method: All experimental animals were arbitrarily provided with commercially available feed and water under specific temperature, humidity and lighting conditions (light-dark cycle 12:12, 22±2° C., 55±5%). […] Co., Republic of Korea) ii) GSK429286A (10 mg/kg/DMSO, Sigma, USA) iii) sildenafil citrate (20 mg/kg/saline) and GSK429286A (10 mg/kg/DMSO) A Barnes maze consisted of a circular platform (122 cm in diameter) with 20 holes around the same distance and elevated 105 cm from the floor. Four different visual cues were placed on each quadrant wall surrounding the platform at a height that makes it easy to observe experimental animals, and one hole (escape hole) in the quadrant area includes an escape chamber under the platform. Further, bedding was added to the escape chamber for the safety of experimental animals. […] More specifically, a metronome was used to generate 80 Hz noise and to maintain the illuminance measured at the center of the platform at 300 lux. […] 10 seconds later, when the cylinder was removed, the experimental animal explored the platform from the center and this activity was recorded by a video camera. […] The distance and duration traveled from the quadrant area where the escape chamber connected to the escape hole is located was analyzed by Ethovision® software, and the waiting time to reach the escape chamber connected to the escape hole was manually analyzed.

[5] = system: MCAo30 acute stroke (cerebral infarction) model; experiment: Measurement of fEPSP slope (synaptic plasticity, hippocampal CA1 LTP); conditions: for fEPSP slope: MCAo30 84.11%
Method: 8-week-old Sprague-Dawley male rats weighing 260 to 280 g were used as experimental animals, and the experimental animals were obtained from the Experimental Animal Center, at Soonchunhyang University (Cheonan). All experimental animals were arbitrarily provided with commercially available feed and water under specific temperature, humidity and lighting conditions (light-dark cycle 12:12, 22±2° C., 55±5%). […] More specifically, the following experimental drugs were each intraperitoneally administered 30 minutes before reperfusion after middle cerebral artery occlusion and 30 minutes after reperfusion after middle cerebral artery occlusion. i) sildenafil citrate (20 mg/kg/saline, Hanmi Parm. Co., Republic of Korea) ii) GSK429286A (10 mg/kg/DMSO, Sigma, USA) iii) sildenafil citrate (20 mg/kg/saline) and GSK429286A (10 mg/kg/DMSO) Field potentials (fEPSP) were recorded at a slightly modified part from CA1 of the hippocampus. After a behavioral test, the animals were anesthetized intraperitoneally using urethane (1.5 g/kg) and placed in a stereotaxic frame. The rectal temperature during surgery was maintained at 37±0.3° C. using a temperature controller (Harvard Instruments, USA). Next, the scalp was opened and separated, and a hole was made through the skull to introduce electrodes. The coordinates (in mm) based on bregma (a junction of the coronal suture and the sagittal suture in the skull) are as follows. […] The depth of the electrodes was finally determined by observing whether the induced response was optimized. The fEPSP was adjusted to about 60% of the maximum response size for testing, and stimuli were generated by a BNC-2110 apparatus (National Instruments, USA) and a Digital Stimulus Isolation unit (Getting Instruments, CA, USA). The response of pyramidal neurons to the Schaffer collateral stimulus was recorded using a [MUT].C. pre-amplifier (3-1000 Hz bandpass, Astro-Med Inc.) and analyzed using […] . […] A stable baseline was recorded for 30 minutes to 60 minutes. […] The response of fEPSP for the age-matched control was also measured using the same method.

Row | SMILES | damage to brain tissue after the onset of stroke (infarction volume) [1] | locomotor activity [2] | time in which rats stayed in a bright place compared to the normal control [3] | escape time (in words) [4] | fEPSP slope ([5]; administered after reperfusion after middle cerebral artery occlusion) | fEPSP slope ([5]; administered before reperfusion after middle cerebral artery occlusion) | fold improved fEPSP slope, group after reperfusion compared to group before reperfusion ([5]; sildenafil alone, after vs before reperfusion)
1 | CC1=C(C(=O)Nc2cc3cn[nH]c3cc2F)C(c2ccc(C(F)(F)F)cc2)CC(=O)N1 (stereo not shown) [ROCK inhibitor, N-(6-fluoro-1H-indazol-5-yl)-6-methyl-2-oxo-4-[4-(trifluoromethyl)phenyl]-3,4-dihydro-1H-pyridine-5-carboxamide] | 21.28% | 71% | 84.26% | level similar to that of the normal control | – | – | –
2 | CCCc1nn(C)c2c(=O)[nH]c(-c3cc(S(=O)(=O)N4CCN(C)CC4)ccc3OCC)nc12 [sildenafil, sildenafil citrate] | 26.71% | 70.8% | 63.63% | – | 158.31% | 102.35% | about 4.06 fold
